pIC50: −log10 of the molar value. Like-named read-outs stand apart in the source and are kept apart here.
Columns and labels:
[1] = tested on: CD38^+ HeLa cells; experiment: Intracellular calcium assay (FURA 2-AM), CD38+ HeLa; assay type: cell-based, human; details: 10 μM for 18 hours; for tapsigargine-induced release of calcium from ER stores [Ca^2+]i: 1 μM tapsigargine
Protocol: Adherent CD38^+ and CD38^− human HeLa cells on 20 mm-diameter coverslips were incubated in complete medium in the presence of […] P18 or P24 for […]. The cells were then washed, incubated with 6 μM Fura 2-acetoxymethyl ester (FURA 2-AM) in standard saline (135 mM NaCl, 5.4 mM KCl, 1.8 mM CaCl2, 1 mM MgCl2, 5 mM Hepes, 10 mM glucose, pH 7.4) for 45 minutes at 37° C. and then washed several times with saline. Calcium measurements were performed in a 200-μl chamber mounted on an inverted microscope, as described in detail in Zocchi E., et al. (1998) J. Biol. Chem. 273, 8017-8024. After determination of basal [Ca^2+]i levels, 1 μM tapsigargine was added to induce the release of calcium from tapsigargine-sensitive stores ([…]). The parameter values needed for calibration were obtained at the end of the experimental measurements, as described in Zocchi E., et al. (1998) J. Biol. Chem. 273, 8017-8024.
Basal cytosolic calcium and tapsigargine-induced release of calcium from […] (ER) stores (in bold in Table 4) were measured in CD38^+ and CD38^− HeLa cells loaded with FURA 2-AM and incubated in the absence (control) or in the presence of P18 or P24 at a concentration of 10 μM for 18 hours. The results obtained, expressed as [Ca^2+]I nanomolarity, are summarised in Table 4, showing mean results from 8 separate experiments (s.d.≦15% of the mean value).

[2] = tested on: HCT-8; experiment: MTT reduction proliferation assay, HCT-8; assay type: cell-based, human; details: HCT-8 colon carcinoma, 24 hours
Protocol: (§1) The effect of P18 and P24 on the proliferation of several cell lines was determined by the MTT reduction assay (Mosmann, T. (1983) J. Immunol. Methods 65, 55-63). […] After 24 hours, 10 μl of a 5 mg/ml solution of MTT were added to each well and the plates incubated for a further 2 hours. The supernatant was then removed from each well and the blue crystals produced by the reduction of the dye were dissolved in DMSO (200 μl/well). The optical absorbance at 570 nm was determined with a BioRad microplate reader.
(§2) In these experiments, cells were seeded onto 96 well plates (3×10^4 cells per well) and incubated in the presence of increasing concentrations of P18 or P24. After 24 hours, the percentage of viable cells was evaluated by spectrophotometric measurement of the concentration of reduced MTT (see Materials and Methods). The means of at least three separate experiments are shown (s.d.≦20% of the mean value). The production of P18 and P24 by human CD38 cyclase, with inhibitory effects on colony growth, together with cADPR, with stimulatory effect, may be at least partly responsible for the colony growth inhibition observed during long term culture of human HP cells on CD38^+ stroma. […]

[3] = molecular target: T1, A. californica ADP-ribosyl cyclase (Aplysia californica, UniProt P29241); experiment: Hydrolysis by Aplysia californica ADP-ribosyl cyclase; assay type: in vitro ADME; details: P18 to adenine and ADPR
T1 construct: The cyclase purified from the mollusc Aplysia californica was purchased from Sigma; purchased Sigma; host or cells: purified from the mollusc
T1 sequence (P29241 25-282): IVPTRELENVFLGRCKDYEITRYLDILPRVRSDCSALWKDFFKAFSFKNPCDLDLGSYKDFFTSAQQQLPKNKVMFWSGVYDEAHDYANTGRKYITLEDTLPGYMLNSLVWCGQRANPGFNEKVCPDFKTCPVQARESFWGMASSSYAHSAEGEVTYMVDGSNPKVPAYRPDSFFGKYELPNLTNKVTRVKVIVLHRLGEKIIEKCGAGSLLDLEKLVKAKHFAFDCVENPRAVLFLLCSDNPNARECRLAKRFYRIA
Protocol: (A and B) or at 37° C. (C and D) for 4 hours. […] Chromatograms representative of each incubation are shown. A. A. polypoides; B. A. californica; C.
The activities are expressed as nmol/min/mg.

[4] = tested on: CD38^− HeLa; experiment: MTT reduction proliferation assay, CD38- HeLa; assay type: cell-based, human; details: 24 hours
Protocol: as §1, §2

[5] = tested on: HEP-G2; experiment: MTT reduction proliferation assay, HEP-G2; assay type: cell-based, human; details: HEP-G2 hepatocarcinoma, 24 hours
Protocol: as §1, §2

[6] = tested on: CD38^+ HeLa; experiment: MTT reduction proliferation assay, CD38+ HeLa; assay type: cell-based, human; details: 24 hours
Protocol: as §1, §2

[7] = tested on: CFC (colony forming cells); experiment: CFC colony growth from cord blood mononuclear cells in semi-solid medium; assay type: cell-based, human; details: for pIC50: read-out: IC50, inhibition of CFC colony growth; for reduction of toxicity by digestion with NPP and CIP: FIG. 4, CFC growth
Protocol: Mononuclear cells isolated from cord blood were incubated in the presence of various concentrations of P18 (▴), P24 (▪) and the iso-adenosine units resulting from the enzymatic digestion of P18 (Δ) and P24 (□). After 24 hours, aliquots of cells (1-2×10^4) were seeded in semi-solid medium to allow for colony growth. Results are expressed as percentage of inhibition of colony growth compared with controls, represented by cells incubated with the same dilution of chromatographic buffer as present in the HPLC-purified compounds. The IC50 values were obtained from the logarithmic regression curves (R≧0.97). The results shown in this figure are the mean from at least three different experiments.
Mononuclear cells were isolated from cord blood (CB MNC) by a density gradient, washed by centrifugation and resuspended in complete medium (Mosmann, T. (1983) J. Immunol. Methods 65, 55-63). Cells (10^6/ml) were incubated for 24 hours in complete medium in the presence of different dinucleotides at concentrations comprised between 20 and 0.4 μM. Then, aliquots of cells (1-2×10^4) were seeded in semi-solid medium, supplemented with haemopoietic growth factors (Methocult, Stem Cell Technologies, Vancouver, BC), in order to allow colonies to develop. After 2 weeks in culture, the colonies which were grown were microscopically identified according to standard criteria (CFU-E, CFU-GM and CFU-GEM) and counted: each colony identifies a colony forming cell (CFC).

[8] = 24 hours incubation of cord blood mononuclear cells, colonies counted after 2 weeks

Row | Compound | ER stores-calcium, % of the control [1] [%] | basal [Ca^2+]i, % of the control [1] [%] | basal cytosolic free calcium [Ca^2+]i [1] [nM] | tapsigargine-induced release of calcium from ER stores [Ca^2+]i [1] [nM] | pIC50 [2] | hydrolysis activity [3] | pIC50 [4] | pIC50 [5] | pIC50 [6] | pIC50 ([7]; 2 hours of incubation) | pIC50 [7, 8] | reduction of toxicity by digestion with NPP and CIP [7] [fold]
1 | Nc1ncnc2c1ncn2[C@@H]1O[C@H](COP(=O)(O)OP(=O)(O)OC[C@H]2O[C@@H](n3cnc4ncnc-4c3N)[C@H](O)[C@@H]2O)[C@@H](O)[C@H]1O [P18] | 48 | 41 | 16 | 123 | 4.19 | 3.5^1 nmol/min/mg | 3.82 | 4.11 | 3.92 | 4.52 | 6.00 | 40
2 | Nc1ncn([C@@H]2O[C@H](COP(=O)(O)OP(=O)(O)OC[C@H]3O[C@@H](n4cnc5c(N)ncnc54)[C@H](O)[C@@H]3O)[C@@H](O)[C@H]2O)c2ncnc1-2 [P24] | 80 | 154 | 57 | 203 | 4.57 | – | 5.01 | 4.74 | 5.04 | – | 6.74 | 30
